The values that follow come from patent US4220643A, “Nitrosourea pentose compounds” (priority 1977, dated 1980).

One data set concerns Leukemia L 1210 cells. The data set can be described thus: Anti-leukemic activity on Leukemia L 1210 in mice (60 days observation). Particulars: for ILS (percentage increase in life-span) / Mean survival days: 60 days observation. In kind it is in vivo, mice (male BDF1). How it is done: The anti-leukemic activity of both the anomers of this invention was tested on Leukemia L 1210 in mice, details of which are given below. By way of comparison, the 1-methyl homologue of the β-anomer of this invention, i.e. 1-methyl-1-nitroso-3-(β-D-ribofuranosyl) urea (refer to T. Suami et al., Japanese Patent Prepublication No. 83365/75), was tested in a similar way.
Male BDF1 mice, aged about 7-weeks old and weighing 22±3 g were used in groups of three animals each for the test of compounds No. 1 and No. 2 or of two animals each for the test of compound No. 3.
Leukemia L 1210 cells were used. For the test of compounds No. 1 and No. 2, 2×10^6 cells/0.04 ml/mouse were intraperitoneally inoculated and for the test of compound No. 3, 1.8×10^6 /0.04 ml/mouse were intraperitoneally inoculated.
The test compound was dissolved in a physiological salt solution to give a series of solutions in predetermined concentrations and 0.1 ml of the each solution was administered intraperitoneally to each mouse once a day from the 24th hour after the tumor cell inoculation for 3 consecutive days for the test of compounds No. 1 and No. 2 or for 2 consecutive days for the test of compound No. 3. The anti-leukemic activity of the compounds tested was assessed by mean survival days, percentage increase in life-span, number of survivors after 60 days observation and the volume of ascites. The percentage increase in life-span (ILS) was calculated as follows: […]
T: The mean survival days of the treated animals
C: The mean survival days of the untreated animals
The control test for this purpose was carried out in the same way as that used for the test of compounds No. 1 and No. 2 or for the test of compound No. 3 except that 0.1 ml of the physiological salt solution was administered in place of the solution of the test compound.

The next data set concerns experimental tumors. Particulars: wide variety of experimental tumors; refers to U.S. Pat. No. 4,086,415; cited from earlier work.
Data set [1] can be described thus: Acute toxicity in intraperitoneal administration to BDF1 mice. To be noted: mouse, in vivo, ip. From the text: The nitrosourea compounds according to this invention are further characterized by their low toxicity. Thus, acute toxicity of the compounds in intraperitoneal administration to BDF1 mice is as follows: […]
[2] abbreviates: 50 mg/kg i.p. once daily, 2 consecutive days.
The mark [3] stands for this setting: 100 mg/kg i.p. once daily, 2 consecutive days.
[4] abbreviates: 200 mg/kg i.p. once daily, 2 consecutive days.
The mark [5] stands for this setting: 250 mg/kg i.p. once daily, 2 consecutive days.
The mark [6] stands for this setting: 2 mg/kg i.p. once daily, 3 consecutive days.
[7] abbreviates: 2 mg/kg i.p. once daily, 3 consecutive days, untreated control 4.5 ml.
[8] abbreviates: 4 mg/kg i.p. once daily, 3 consecutive days.
Setting [9] is: 4 mg/kg i.p. once daily, 3 consecutive days, untreated control 4.5 ml.
Where [10] appears, read: 8 mg/kg i.p. once daily, 3 consecutive days.
Setting [11] is: 8 mg/kg i.p. once daily, 3 consecutive days, untreated control 4.5 ml.
[12] abbreviates: 16 mg/kg i.p. once daily, 3 consecutive days.
[13] abbreviates: 16 mg/kg i.p. once daily, 3 consecutive days, untreated control 4.5 ml.
[14] abbreviates: dose not given, i.p. once daily, 3 consecutive days.
Where [15] appears, read: 1 mg/kg i.p. once daily, 3 consecutive days.

Where only a bound is given, the exact number is not on record here.

`CN(N=O)C(=O)N[C@@H]1O[C@H](CO)[C@@H](O)[C@H]1O` [compound 3, 1-methyl-1-nitroso-3-(β-D-ribofuranosyl) urea, reference compound]: the “Number of survivors (after 60 days)” value in the data set with Leukemia L 1210 cells (setting [2]), in the data set with Leukemia L 1210 cells (setting [3]), with Leukemia L 1210 cells (setting [4]) and with Leukemia L 1210 cells (setting [5]) was 0/2 in each case. Further, the “ILS (percentage increase in life-span)” value with Leukemia L 1210 cells (setting [2]) came out at 50.0%; in the data set on Leukemia L 1210 cells (setting [3]) it was 50.0%; in the data set with Leukemia L 1210 cells (setting [4]) it was 80.0%; in the data set with Leukemia L 1210 cells (setting [5]) it was 15.0%. Besides, the Mean survival days in the data set with Leukemia L 1210 cells (setting [2]) was determined as 15.0 days; in the data set on Leukemia L 1210 cells (setting [3]) it was 15.0 days; in the data set with Leukemia L 1210 cells (setting [4]) it was 18.0 days; with Leukemia L 1210 cells (setting [5]) it was 11.5 days. In addition, the Volume of ascites came to 4.6 mL with Leukemia L 1210 cells (50 mg/kg i.p. once daily, 2 consecutive days, untreated control 5.3 ml); 0.7 mL in the data set on Leukemia L 1210 cells (100 mg/kg i.p. once daily, 2 consecutive days, untreated control 5.3 ml); 0.3 mL with Leukemia L 1210 cells (200 mg/kg i.p. once daily, 2 consecutive days, untreated control 5.3 ml); 0.6 mL in the data set on Leukemia L 1210 cells (250 mg/kg i.p. once daily, 2 consecutive days, untreated control 5.3 ml).

As to `O=NN(CCCl)C(=O)N[C@@H]1O[C@H](CO)[C@@H](O)[C@H](O)[C@H]1O` [GANU, 1-(2-chloroethyl)-3-(β-D-glucopyranosyl)-1-nitrosourea], in the data set on experimental tumors, the “Antitumor activity, in words” value is recorded as “broad spectrum of antitumor activity against a wide variety of experimental tumors”.

The term LD50 denotes the dose at which mortality reaches 50%. A higher LD50 goes with lower toxicity. `O=NN(CCCl)C(=O)N[C@@H]1O[C@H](CO)[C@@H](O)[C@H]1O` [compound 2, 1-(2-chloroethyl)-1-nitroso-3-(β-D-ribofuranosyl) urea] came in with an LD50 in data set [1] of 30 mg/kg. Also, the “Number of survivors (after 60 days)” value was 1/3 with Leukemia L 1210 cells (setting [6]); 2/3 in the data set with Leukemia L 1210 cells (setting [8]); 3/3 in the data set with Leukemia L 1210 cells (setting [10]); 0/3 in the data set with Leukemia L 1210 cells (setting [12]); 0/3 with Leukemia L 1210 cells (setting [14]). Further, the “ILS (percentage increase in life-span)” value with Leukemia L 1210 cells (setting [6]) is recorded as more than 223.0%; with Leukemia L 1210 cells (setting [8]), more than 360.0%; in the data set on Leukemia L 1210 cells (setting [10]), more than 500.0%; in the data set on Leukemia L 1210 cells (setting [12]), -13.0%; with Leukemia L 1210 cells (setting [14]) it was 53.0%. For the same compound, the Mean survival days is more than 32.3 days in the data set with Leukemia L 1210 cells (setting [6]); more than 46.0 days with Leukemia L 1210 cells (setting [8]); more than 60.0 days with Leukemia L 1210 cells (setting [10]); 8.7 days in the data set with Leukemia L 1210 cells (setting [12]); 15.3 days in the data set with Leukemia L 1210 cells (setting [14]). The Volume of ascites in the data set on Leukemia L 1210 cells (setting [7]) is 0 mL; in the data set on Leukemia L 1210 cells (setting [9]) it was 0 mL; in the data set on Leukemia L 1210 cells (setting [11]) it was 0 mL; with Leukemia L 1210 cells (setting [13]) it was 0 mL; in the data set with Leukemia L 1210 cells (dose not given, i.p. once daily, 3 consecutive days, untreated control 4.5 ml), 2.5 mL.

In the case of `O=NN(CCCl)C(=O)N[C@H]1O[C@H](CO)[C@@H](O)[C@H]1O` [compound 1, 1-(2-chloroethyl)-1-nitroso-3-(α-D-ribofuranosyl) urea], the LD50 in data set [1] was found to be 34 mg/kg. The “Number of survivors (after 60 days)” value is on record as 0/3 with Leukemia L 1210 cells (setting [15]); 0/3 in the data set on Leukemia L 1210 cells (setting [6]); 2/3 with Leukemia L 1210 cells (setting [8]); 2/3 in the data set on Leukemia L 1210 cells (setting [10]); 0/3 in the data set on Leukemia L 1210 cells (setting [12]). The “ILS (percentage increase in life-span)” value is 37.0% with Leukemia L 1210 cells (setting [15]); 50.0% with Leukemia L 1210 cells (setting [6]); more than 383.0% with Leukemia L 1210 cells (setting [8]); more than 323.0% with Leukemia L 1210 cells (setting [10]); 13.0% in the data set with Leukemia L 1210 cells (setting [12]). Also, the Mean survival days is reported as 13.7 days with Leukemia L 1210 cells (setting [15]); 15.3 days in the data set on Leukemia L 1210 cells (setting [6]); more than 48.3 days in the data set on Leukemia L 1210 cells (setting [8]); more than 42.3 days in the data set on Leukemia L 1210 cells (setting [10]); 11.3 days with Leukemia L 1210 cells (setting [12]). The Volume of ascites was found to be 1.7 mL in the data set on Leukemia L 1210 cells (1 mg/kg i.p. once daily, 3 consecutive days, untreated control 4.5 ml); 0 mL with Leukemia L 1210 cells (setting [7]); 0 mL in the data set on Leukemia L 1210 cells (setting [9]); 0 mL in the data set with Leukemia L 1210 cells (setting [11]); 0 mL in the data set on Leukemia L 1210 cells (setting [13]).
